Measurements as given in ChEMBL document CHEMBL4304800, “C4-Phenylthio β-lactams: Effect of the chirality of the β-lactam ring on antimicrobial activity” (2019).
Values after ≈ are worked out from the molar mass of the structure shown. Active and inactive are the calls of the source. No cut-off for these calls is given here.

Assays:
Moraxella catarrhalis = assay: Bactericidal activity against serine beta-lactamase producing Moraxella catarrhalis incubated in MH broth for 24 to 48 hrs by microbroth dilution method; assay type: functional
[1] = test system: Mycobacterium tuberculosis; assay: Antitubercular activity against serine beta-lactamase producing Mycobacterium tuberculosis H37Rv after 14 days in presence of middlebrook 7H9/BSA medium by eleven fold serial dilution method; assay type: functional; conditions: 336 h
[2] = test system: Mycobacterium tuberculosis; assay: Antitubercular activity against serine beta-lactamase producing Mycobacterium tuberculosis H37Rv after 14 days in presence of GAST/Fe medium by eleven fold serial dilution method; assay type: functional; conditions: 336 h
[3] = test system: Mycobacterium tuberculosis; assay: Antitubercular activity against clinical drug sensitive Mycobacterium tuberculosis K14b00DS after 14 days in presence of middlebrook 7H9/BSA medium by eleven fold serial dilution method; assay type: functional; conditions: 336 h
[4] = test system: Mycobacterium tuberculosis; assay: Antitubercular activity against serine beta-lactamase producing Mycobacterium tuberculosis H37Rv after 14 days in presence of Glu/BSA medium by eleven fold serial dilution method; assay type: functional; conditions: 336 h
[5] = test system: Mycobacterium tuberculosis; assay: Antitubercular activity against serine beta-lactamase producing Mycobacterium tuberculosis H37Rv after 14 days in presence of Glu/Cas medium by eleven fold serial dilution method; assay type: functional; conditions: 336 h
[6] = test system: Mycobacterium tuberculosis; assay: Antitubercular activity against serine beta-lactamase producing Mycobacterium tuberculosis H37Rv after 14 days in presence of Chol/BSA medium by eleven fold serial dilution method; assay type: functional; conditions: 336 h
[7] = test system: Mycobacterium tuberculosis; assay: Antitubercular activity against serine beta-lactamase producing Mycobacterium tuberculosis H37Rv after 14 days in presence of DPCC/Cas medium by eleven fold serial dilution method; assay type: functional; conditions: 336 h
[8] = test system: Mycobacterium tuberculosis; assay: Antitubercular activity against serine beta-lactamase producing Mycobacterium tuberculosis H37Rv after 14 days in presence of DPPC/BSA medium by eleven fold serial dilution method; assay type: functional; conditions: 336 h
[9] = test system: Mycobacterium tuberculosis; assay: (§1) Bactericidal activity against serine beta-lactamase producing Mycobacterium tuberculosis H37Rv assessed as reduction in microbial cell number at MIC preincubated in middlebrook 7H9 medium for 7 days and further incubated in middlebrook 7H11/BSA supplemented with OADC for 3 weeks by serial dilution based colony counting method; assay type: functional, organism-based
[10] = test system: Mycobacterium tuberculosis; assay: as §1, with “induction of” for “reduction in”, “kill” for “cell number”; assay type: functional

Structure (SMILES)	MBC (Moraxella catarrhalis) [µg/mL]	MIC (Moraxella catarrhalis) [µg/mL]	MIC99 [1] [µg/mL]	MIC99 [2] [µg/mL]	MIC [3] [µg/mL]	MIC [4] [µg/mL]	MIC [5] [µg/mL]	MIC [6] [µg/mL]	MIC [7] [µg/mL]	MIC [8] [µg/mL]	Activity [9]	LCK [10]
C[C@@H](NC(=O)N1C(=O)C[C@H]1[Se]c1ccccc1)c1ccccc1	50 (≈ 134 µM)	25 (≈ 67 µM)	25	12.5								
C[C@H](NC(=O)N1C(=O)C[C@H]1[Se]c1ccccc1)c1ccccc1	50 (≈ 134 µM)	25 (≈ 67 µM)	25	6.2								
C[C@@H](NC(=O)N1C(=O)C[C@H]1Sc1ccc(F)c(F)c1)c1ccccc1	12.5 (≈ 34.5 µM)	12.5 (≈ 34.5 µM)	≥ 100	0.7								
C[C@@H](NC(=O)N1C(=O)C[C@@H]1[Se]c1ccccc1)c1ccccc1	50 (≈ 134 µM)	25 (≈ 67 µM)	25	12.5								
C[C@H](NC(=O)N1C(=O)C[C@@H]1[Se]c1ccccc1)c1ccccc1	50 (≈ 134 µM)	25 (≈ 67 µM)	25	6.2								
NNC(=O)c1ccncc1 [ISONIAZID]			0.07	0.02	0.08							
O=C1CC(Sc2c(F)c(F)c(F)c(F)c2F)N1C(=O)NCc1ccccc1 (racemic)	6.2 (≈ 15.4 µM)		12.5			6.25	1.5	25	0.78	25	Active	<3
C[C@H](NC(=O)N1C(=O)C[C@@H]1Sc1ccccc1F)c1ccccc1	200 (≈ 581 µM)	25 (≈ 72.6 µM)	25	6.2								
C[C@@H](NC(=O)N1C(=O)C[C@@H]1Sc1ccc(F)c(Cl)c1)c1ccccc1	25 (≈ 66 µM)	25 (≈ 66 µM)	25	1.5								
C[C@H](NC(=O)N1C(=O)C[C@H]1Sc1ccc(F)c(Cl)c1)c1ccccc1	200 (≈ 528 µM)	200 (≈ 528 µM)	25	1.5								
C[C@H](NC(=O)N1C(=O)C[C@H]1Sc1ccc(F)cc1F)c1ccccc1	50 (≈ 138 µM)	50 (≈ 138 µM)	50	0.7	50							
C[C@@H](NC(=O)N1C(=O)C[C@@H]1Sc1ccc(F)cc1Cl)c1ccccc1	25 (≈ 66 µM)	25 (≈ 66 µM)	25	0.7								
COc1ccccc1S[C@H]1CC(=O)N1C(=O)N[C@@H](C)c1ccccc1	50 (≈ 140 µM)	50 (≈ 140 µM)	25	6.2								
C[C@H](NC(=O)N1C(=O)C[C@H]1Sc1ccccc1F)c1ccccc1	50 (≈ 145 µM)	50 (≈ 145 µM)	50	12.5								
C[C@H](NC(=O)N1C(=O)C[C@H]1Sc1c(F)c(F)c(F)c(F)c1F)c1ccccc1	50 (≈ 120 µM)	50 (≈ 120 µM)	100	0.7							Active	<3
O=C1CC(Sc2ccc(F)c(F)c2)N1 (racemic)			50								Active	<3
C[C@H](NC(=O)N1C(=O)C[C@@H]1Sc1ccc(F)cc1F)c1ccccc1	12.5 (≈ 34.5 µM)	12.5 (≈ 34.5 µM)	12.5	0.7								
C[C@H](NC(=O)N1C(=O)C[C@H]1Sc1ccc(F)cc1)c1ccccc1	50 (≈ 145 µM)	50 (≈ 145 µM)	50	12.5								
C[C@@H](NC(=O)N1C(=O)C[C@@H]1Sc1ccc(F)cc1)c1ccccc1	25 (≈ 72.6 µM)	25 (≈ 72.6 µM)	50	12.5								
